Experimental data reported in US20160030438A1, “ANTI-TUMORAL COMPOSITION COMPRISING A PI3KBETA INHIBITOR AND A RAF INHIBITOR, TO OVERCOME CANCER CELLS RESISTANCE” (SANOFI, priority 2013, published 2016).

Key:
[1] = tested on: human melanoma cell line WM-266-4; assay: In vitro pro-apoptotic activity (PARP cleavage) in WM-266-4 in a concentration-dependent manner, example 5; type: cell-based; settings: WM-266-4, example 5
Method: (§1) The characterization of the interaction between compound (I) and compound (II) was studied using western blotting method which allows investigating apoptosis by detecting the cleavage of the PARP protein.
(§2) The human melanoma WM-266-4 cell line was purchased at ATCC (Ref number CRL-1676 Batch 3272826). The WM-266-4 cells were cultured in RPMI1640 medium supplemented with 10% FBS and 2 mM L-Glutamine.
They were diluted following two 10-fold step dilution in DMSO in order to obtain a 1 mM solution and a 0.1 mM solution Then each solution at 10 mM, 1 mM or 0.1 mM was diluted 50-fold in culture medium containing 10% serum before being added onto cells with a 20-fold dilution factor to reach final concentrations of 10,000 nM, 1,000 nM and 100 nM. The final DMSO concentration was 0.1% in controls and in all treated wells.
(§3) Cell treatment, Western Blot experiment and calculation of apoptosis fold induction were performed according to the material and method described in example 2.

[2] = tested on: human melanoma cell line WM-266-4; assay: In vitro pro-apoptotic activity (PARP cleavage western blot) in WM-266-4, example 2; type: cell-based; settings: for PARP cleavage signal (AU-BG): single agent 10 000 nM, 24 hours, WM-266-4, example 2
Method: The characterization of the interaction between compound (I) and compound (II) was studied using western blotting method measuring the expression of cleaved PARP which allows to investigate apoptosis by detecting the cleavage of the PARP protein.
as §2
They were diluted following a 10 fold step dilution in DMSO in order to obtain a 1 mM solution. Then each solution at 10 mM and 1 mM was diluted 50-fold in culture medium containing 10% serum before being added onto cells with a 20-fold dilution factor to reach final concentrations of 10,000 nM and 1,000 nM. The final DMSO concentration was 0.1% in controls and in all treated wells.
WM-266-4 cells were seeded into 6-well microplates at 1 000 000 cells per well, in complete culture medium and incubated at 37° C., 5% CO2, overnight.
At the end of cell treatment period, adherent cells as well as cells in the cell culture supernatant were lysed for the preparation of the proteins. Cells were lysed in a lysis buffer containing Hepes 50 mM, NaCl 150 mM, Glycerol 10%, Triton 1%, pH=7.5, adding extemporaneously a cocktail of protease and phosphatase inhibitors diluted 100 fold. Protein concentrations in each sample were determined using microBCA technique according to manufacturer's instructions. Western blotting was performed loading 20 μg of proteins in each gel well, and according to the operating procedure. […] After western blotting revelation according to the operating procedure instructions, luminescence was read using FujiFilm (Ray Test) apparatus.
This instrument measures the total signal of luminescence obtained on Fujifilm machine (AU) for each selected band. Then, it subtracts the background value (BG) proportional to the size of the selected band or Area. The background is calculated from a band taken on the specific background of the western blot, to obtain the specific signal or (AU−BG) for each band. The calculation of the fold induction is performed for each treatment with compound or combination of compounds using the following formula:
Fold Induction=((AU−BG)t/(AU−BG)st)*100

[3] = tested on: human melanoma cell line A2058; assay: In vitro pro-apoptotic activity (PARP cleavage western blot) in A2058, example 4; type: cell-based
Method: as §1
(§4) The human melanoma A2058 cell line was purchased at ATCC (Ref number CRL-11147 Batch 5074651). The A2058 cells were cultured in DMEM High glucose medium supplemented with 10% FBS and 2 mM L-Glutamine.
as §3

[4] = tested on: human melanoma cell line A2058; assay: In vitro anti-proliferative activity (CelltiterGlo, ray design) in A2058, example 3; type: cell-based; settings: for Absolute IC40: A2058, 96 hours, example 3
Method: (I) in combination with the BRAF inhibitor compound (II), experiments were conducted using human melanoma cell line A2058 (BRAF mutant, PTEN-deficient and unsensitive to said BRAF inhibitor).
as §4
Compounds (I) and (II) dilutions were prepared according to the material and methods of example 1. The final concentrations tested were defined by Ray design method described below. The DMSO concentration was 0.1% in controls and in all treated wells.
A ray design was used allowing the characterization of the interaction of the two compounds for several fixed proportion in the mixture. The ray design includes one ray for each single agent and 19 combination rays.
A2058 cells were plated at 4,000 cells/well in 384-well plates in appropriate culture medium and incubated for 6 hours at 37° C., 5% CO2. […] Cell growth was evaluated by measuring intracellular ATP using CelltiterGlo® reagent (Promega) according to the manufacturer's protocol. Briefly, CellTiterGlo® was added to each plate, incubated for 1 hour then luminescent signal was read on the MicroBeta Luminescent plate reader.
Four experiments have been performed on this cell line. For each experiment, two 384-well plates were used allowing working with duplicates for combination rays and with quadruplicates for single agent rays.
Inhibition of cell growth was estimated after treatment with single compounds or combination of compounds for four days and comparing the signal to cells treated with vehicle (DMSO) and following equation described in example 1.
These measurements allow determining the potential synergistic combinations in using the statistical method described in example 1.

[5] = tested on: ribosomal protein S6 phosphorylated on Ser240/244 (pS6) in A2058 cells; assay: In vitro S6 phosphorylation inhibition (pS6 western blot) in A2058, example 8; type: cell-based, human; settings: for inhibition at 0.1 µM: Homo sapiens
Method: The inhibitory effect on ribosomal S6 protein phosphorylation by both compounds alone or in combination was characterized using western blotting method which allows investigating S6 phosphorylation by detecting the expression of ribosomal protein S6 phosphorylated on Ser240/244 position (pS6).
as §4
Cell treatment, Western Blot experiment and calculation of percentage of pS6 inhibition were performed according to the material and method described in example 7.

[6] = tested on: human melanoma cell line A2058; assay: In vitro pro-apoptotic activity (PARP cleavage) in A2058 in a concentration-dependent manner, example 6; type: cell-based; settings: A2058, example 6
Method: as §1, §4, §3

[7] = single agent 10 000 nM, A2058, example 4
[8] = Homo sapiens, single agent 100 nM

| SMILES | PARP cleavage signal (AU-BG) ([1]; single agent 100 nM) | PARP cleavage signal (AU-BG) ([1]; single agent 1 000 nM) | PARP cleavage signal (AU-BG) ([1]; single agent 10 000 nM) | PARP cleavage signal (AU-BG) [2] [AU-BG] | PARP cleavage signal (AU-BG) [3, 7] [AU-BG] | Absolute IC40 ([4]; single agent) | inhibition at 0.1 µM ([5]; single agent 100 nM) [%] | pS6 signal (AU-BG) ([5]; single agent 100 nM) | Inhibition % of S6 phosphorylation ([5]; single agent 1 000 nM) [%] | pS6 signal (AU-BG) ([5]; single agent 1 000 nM) | Inhibition % of S6 phosphorylation ([5]; single agent 10 000 nM) [%] | pS6 signal (AU-BG) ([5]; single agent 10 000 nM) | PARP cleavage signal (AU-BG) ([6]; single agent 100 nM) | PARP cleavage signal (AU-BG) ([6]; single agent 1 000 nM) | PARP cleavage signal (AU-BG) ([6]; single agent 10 000 nM) | further results |
| --- | --- | --- | --- | --- | --- | --- | --- | --- | --- | --- | --- | --- | --- | --- | --- | --- |
| C[C@H]1Cc2ccccc2N1C(=O)Cc1nc(N2CCOCC2)cc(=O)[nH]1 [Compound (I), 2-{2-[(2S)-2-methyl-2,3-dihydro-1H-indol-1-yl]-2-oxoethyl}-6-(morpholin-4-yl)pyrimidin-4(3H)-one] | 241428 | 502317 | 1756263 | 509366 | 2141626 | 11,500 nM | 8 | 27394341 | 42 | 17416427 | 73 | 8161752 | 2380877 | 2685395 | 5173100 | – |
| CCCS(=O)(=O)Nc1ccc(F)c(C(=O)c2c[nH]c3ncc(-c4ccc(Cl)cc4)cc23)c1F [Compound (II), 1-Propanesulfonamide,N-[3-[[5-(4-chlorophenyl)-1H-pyrrolo[2,3-b]pyridin-3-yl]carbonyl]-2,4-difluorophenyl]] | 413818 | 662217 | 876269 | 982219 | 2501364 | 1,890 nM | 27 | 21830955 | 40 | 17943024 | 62 | 11383792 | 2431268 | 4540797 | 5192876 | fold induction at 0.1 µM [1, 8]: 1.62; Fold induction of PARP cleavage ([1]; single agent 1 000 nM): 2.59 fold; Fold induction of PARP cleavage ([1]; single agent 10 000 nM): 3.42 fold; Fold induction of PARP cleavage ([2]; human, WM-266-4 melanoma cells (BRAF mutant, PTEN-deficient), 24 h, 10000 nM): 1.38 fold; Fold induction of PARP cleavage ([3]; human, 24 h, 10000 nM): 1.00 fold; Fold induction of PARP cleavage [3, 7]: 1.17 fold; IC50 ([4]; Homo sapiens, A2058, approximately, read-out: IC50 with A2058 unsensitive cancer cells): ~4.2 µM; IC40, antiproliferative effect, A2058 ([4]; single agent, approximately): ~1,200 nM; fold induction at 0.1 µM [6, 8]: 1.14; Fold induction of PARP cleavage ([6]; single agent 1 000 nM): 2.13 fold; Fold induction of PARP cleavage ([6]; single agent 10 000 nM): 2.44 fold |
